In test [1] the test system is Caspase 3 activity of LS1034 human colon MDR carcinoma cells. Briefly: Caspase-3 activity in LS1034 human colon MDR carcinoma cells. In kind it is cell-based. As to conditions: 10 or 20 μM, 4 hr after exposure. How it is done:
Caspase 3 activity was measured by an enzymatic fluorimetric method using a fluorigenic substrate (Ac-DEVD-AMC), which produces blue fluorescence detected at 360 nm wavelength. […] When AMC is cleaved from the substrate by caspase-3, and caspase-3-like enzymes, it produces a yellow-green fluorescence, which can be monitored by a fluorimeter at 460 nm. The amount of yellow green fluorescence is proportional to the activity of caspase-3 in the cell extract sample.
Whole cell lysate was added to a buffer containing 100 μM peptide substrate, 100 mM HEPES, 10% glycerol, 1 mM EDTA and 10 mM dithiothreitol. Measurements were taken every 5 min for 80 min. These experiments were also monitored in the presence of a specific caspase-3 inhibitor, DEVD-AMC-CHO, which was added after 45 or 60 min to the reaction mixture, to ascertain the specificity of the enzyme.

A further test concerns RXF 944L. Nature of the test: Monolayer Assay, PI: RXF 944L (Renal). In kind it is cell-based, human. The text has this: This example illustrates cell proliferation data in the form of IC50, IC70 and IC90 values obtained by exposure of human cancer cell-lines to compound (Ia). […].

These results are taken from patent US20100279990A1, “ANTIPROLIFERATIVE COMPOUNDS, COMPOSITIONS AND METHODS OF USE” (RAMOT AT TEL-AVIV UNIVERSITY LTD., priority 2006, published 2010).

In the case of `CN[C@H]1CC[C@@H](c2ccc(Cl)c(Cl)c2)c2ccc(C#CCCCO)cc21` [compound (Ia), (1S-cis)-4-(3,4-dichlorophenyl)-7-(5-hydroxy-1-pentyn-1-yl)-1,2,3,4-tetrahydro-N-methyl-1-naphthalenamine hydroiodide], the caspase-3 activity entry in test [1] was “dose dependent increase in the activity of caspase-3”. Also, the “Test/Control (%)” value with RXF 944L (2.3 μg/ml) is reported as 103%; with RXF 944L (7.5 μg/ml) it was 9%; with RXF 944L (23. μg/ml) it was 3%; in the test with RXF 944L (75. μg/ml), 3%; with RXF 944L (.75 μg/ml), 94%. The Test/Control activity class result is given as “− (− (T/C = 50))” in the test on RXF 944L (2.3 μg/ml); “+++ (+++ (T/C < 10))” in the test on RXF 944L (7.5 μg/ml); “+++ (+++ (T/C < 10))” in the test on RXF 944L (23. μg/ml); “+++ (+++ (T/C < 10))” in the test with RXF 944L (75. μg/ml); “− (− (T/C = 50))” in the test on RXF 944L (.75 μg/ml).
